Measurements as given in patent publication US20110008415A1, “NOVEL LIPOPHILIC COMPOSITIONS AND USES THEREOF” (UNIVERSITE DE BRETAGNE OCCIDENTALE, priority 2007, published 2011).

Experiments:
[1] = basic side chain / imidazole ring; cited from earlier work
[2] = pKa of basic side chain / imidazole ring; assay type: physicochemical
[3] = system: 293T7 cells (human kidney embryonal fibroblasts); test: Transfection of 293T7 cells with luciferase plasmid/liposome complexes; assay type: cell-based; conditions: for transfection efficiency when associated with co-lipids 2c or 7b compared with DOPE: 293T line cells, tests considered as a whole; for observed luminescence values: 293T cells; for efficiency gain as compared to DOPE: value in brackets
Description: A lipid film was prepared in a sterile flask under nitrogen by dry evaporating 1 mL of a 10.8 mM cationic lipid or a mixture of a cationic lipid/neutral lipid (molar ratio 1:1) in ethanol. The film was then hydrated with 1 mL of 10 mM HEPES buffer, pH 7.4, the solution was vigorously stirred for 3 min, then allowed to rest at 4° C. After 2 h, the solution was sonicated for 15 min in an ultrasonic bath at 37 kHz (Bioblock ultrasonic bath, Bioblock Scientific, Illkirch, France).
18 μl of a solution of liposomes at 5.4 mM were diluted in 200 μl of 10 mM HEPES buffer, pH 7.4. After 15 min, 7.5 μg of a plasmid encoding the gene of the luciferase (pTG11033; 9514 bp, Transgene S. A., Strasbourg, France) in 20 μl of 10 mM HEPES buffer, pH 7.4, were added to the liposomes and the mixture was allowed to rest for 30 min. The solution comprising the DNA/liposome complexes was adjusted to 1.5 ml with some culture medium free of serum and at 0.15M NaCl with a solution of 5M NaCl.
Two days before transfection, 293T7 cells (human kidney embryonal fibroblasts) were seeded with 1×10^5 cells in 1 mL of a culture medium in a 24-well plate. The day of the transfection, cells achieved 80% confluence. Cells were washed twice with some medium free of serum prior to adding 2.5 μg of DNA in the form of DNA/liposome complexes. After 4 h of incubation at 37° C., the medium was removed and cells were cultured for 48 h with complete culture medium.
The culture medium of the cells was removed and each well was rinsed with 500 μL of PBS. Cell detachment was obtained with 500 μL of the PBS+trypsin per well for 5 min at 37° C. The cell suspension was then centrifuged for 5 min at 250×g (1500 rpm) at 20° C. 400 μL of lysis buffers (CCLR, Promega) were added on the cell pellet, which was allowed to incubate onto ice for 15 min. After Vortex-stirring, centrifugation was effected at 12 000×g for 2 min at 4° C. The luciferase activity contained in 20 μL of supernatant was measured using a luminometer (Bertold Lumat LB 9501) for 10 seconds after injection of 100 μL of luciferin (Luciferase Assay Reagent, Promega). The light transmitted was converted to arbitrary units relative to the protein amount in the sample determined through the bicinchoninic acid method.
The protein amount in the lysate was evaluated through the BCA method (H. Hill and G. Straka, 1998). Proteins were contacted with bicinchoninic acid (BCA) and copper ions in an alkaline medium. The copper ions resulting from the protein-mediated reduction thereof formed stable, colored complexes with BCA. Coloration is objectified through spectrophotometric determination (562 nm). Once a standard range was obtained using bovine serum albumin, the weight of protein contained in the cell lysates was calculated.

[4] = co-lipid 2c (molar ratio 1:1), 48 h after transfection
[5] = co-lipid 7b (molar ratio 1:1), 48 h after transfection
[6] = co-lipid DOPE (molar ratio 1:1), 48 h after transfection
[7] = no co-lipid (—), luciferase plasmid pTG11033, 48 h after transfection

| Compound | pKa [1] | imidazole ring protonated at a physiological pH [2] | transfection efficiency when associated with co-lipids 2c or 7b compared with DOPE [3] | observed luminescence values [3, 4] | efficiency gain as compared to DOPE ([3]; co-lipid 2c) | observed luminescence values [3, 5] | efficiency gain as compared to DOPE ([3]; co-lipid 7b) | observed luminescence values [3, 6] | observed luminescence values [3, 7] |
| --- | --- | --- | --- | --- | --- | --- | --- | --- | --- |
| N=C(N)NCCCC[C@H](N)C(=O)O [Homoarginine] | 12.5 | – | – | – | – | – | – | – | – |
| COC(=O)[C@@H](N)CCCNC(=N)N [arginine methyl ester] | 12.48 | – | – | – | – | – | – | – | – |
| N[C@@H](Cc1c[nH]cn1)C(=O)O [histidine] | – | about 5% | – | – | – | – | – | – | – |
| c1c[nH]cn1 [imidazole] | about 6 | – | – | – | – | – | – | – | – |
| COC(=O)[C@@H](N)CCCCN [lysine methyl ester] | 10.57 | – | – | – | – | – | – | – | – |
| arginine methyl ester dioleoyl-N-phosphoramidate [3a] | – | – | more efficient | 5.10^8 TRLU | 100 | 10^6 TRLU | 0.2 | 5.10^6 TRLU | 7.10^6 TRLU |
| homoarginine methyl ester dioleoyl-N-phosphoramidate [3b] | – | – | more efficient | 3.10^9 TRLU | 1000 | 3.10^7 TRLU | 10 | 3.10^6 TRLU | 9.10^6 TRLU |
| lysine methyl ester dioleoyl-N-phosphoramidate [compound 4] | – | – | more efficient | 5.10^7 TRLU | 1.6 | 4.10^7 TRLU | 1.3 | 3.10^7 TRLU | 2.10^7 TRLU |
